Test results taken from article PMC8869655, “Identification of the Kinase-Substrate Recognition Interface between MYPT1 and Rho-Kinase” (Biomolecules, 2022).
Residues, ends and D or L forms follow the SMILES beside them. No end group written: not given here.

What was measured:
[1] = target: T1, GST-Rho-kinase-cat-L (bovine, residues 6–553) (Bos taurus, UniProt Q28021); test: In vitro kinase assay, Rho-kinase-cat-L activity; assay type: biochemical; conditions: for Inhibition of Rho-kinase-cat-L activity (in words) / IC50: S6 rsk substrate peptide as substrate, 50 μM γ-[32P]ATP, 30 °C, scintillation counting, N = 3; for Inhibition of Rho-kinase-cat-L activity (in words): inhibitor at the indicated concentrations; for IC50: 10–20 min, cation-exchange membrane
T1 construct: GST-Rho-kinase-cat-L (bovine, residues 6–553); made in house; host or cells: Sf9 cells (baculovirus)
Description: The kinase reactions were performed in 50 μL of a reaction mixture (25 mM Tris-HCl, pH 7.5, 1 mM EDTA, 1 mM EGTA, 1 mM DTT, 5 mM MgCl2, and 50 μM γ-[^32P]ATP [1–20 GBq/mmol]), GST-Rho-kinase-cat-L or other kinases (1–10 nM), and substrates for 10–20 min at 30 °C. The reaction mixtures were applied to cation-exchange membranes and washed with 75 mM phosphoric acid three times, which was followed by scintillation counting.
Figure 4 Direct inhibition of Rho-kinase activity in vitro. (A) In vitro phosphorylation of S6 rsk substrate peptide by Rho-kinase. GST-Rho-kinase-cat-L or GST-ROCK1-cat-L activity was examined using the S6 rsk substrate peptide as a substrate in the presence of γ-[^32P]ATP. GST-MYPT1-684–868 aa-WT or -4A was added at the indicated concentrations. The reaction mixtures were applied onto cation-exchange membranes, followed by scintillation counting. N = 3. (B) Effects of the deletion of DMs on the inhibition of Rho-kinase activity in vitro. GST-Rho-kinase-cat-L activity was examined using the S6 rsk substrate peptide as a substrate in the presence of γ-[^32P]ATP. GST-MYPT1-684–868-4A with or without DMs was added at the indicated concentrations. The reaction mixtures were applied onto cation-exchange membranes, followed by scintillation counting. N = 3. The deletion of DM1 or DM2 moderately weakened the inhibitory effect and the deletion of both DM1 and DM2 completely abrogated the inhibitory effects of the MYPT1 fragment on the Rho-kinase activity. (C) Sequences of the DMs and phosphorylation sites of MYPT1. The sequences of MYPT1 683–715 aa and 836-860 aa and synthetic peptides are shown. Basic (blue), acidic (red), and aliphatic (green) amino acids within DMs are indicated. Phosphorylation sites are replaced by Ala in pseudosubstrate (PS) peptides. (D) Inhibition of Rho-kinase activity by PS2 + DM2 synthetic peptide. GST-Rho-kinase-cat-L activity was examined using the S6 rsk substrate peptide as a substrate in the presence of γ-[^32P]ATP. Synthetic peptides were added at the indicated concentrations. The reaction mixtures were applied onto cation-exchange membranes, followed by scintillation counting. N = 3. (E) Inhibition of Rho-kinase activity by PS1 + DM3 synthetic peptide. GST-Rho-kinase-cat-L activity was examined using the S6 rsk substrate peptide as a substrate in the presence of γ-[^32P]ATP. Synthetic peptides were added at the indicated concentrations. The reaction mixtures were applied onto cation-exchange membranes, followed by scintillation counting. N = 3.

[2] = target: T1, GST-Rho-kinase-cat-L (bovine, residues 6–553); test: In vitro kinase assay, Rho-kinase-cat-L activity; assay type: biochemical; conditions: synthetic peptide at the indicated concentrations, Figure S4, N=3
[3] = test system: phosphorylation of GFP-MYPT1 at Thr855 in COS7 cells; test: Phosphorylation of GFP-MYPT1 in COS7 cells; assay type: cell-based; conditions: GST-MYPT1 fragment coexpressed with full-length GFP-MYPT1 in COS7 cells, 24 h, immunoblot anti-MYPT1-pT855 normalized by GFP-MYPT1
Description: COS7 cells were seeded on a 6-well dish at a density of 1.8 × 10^5 cells/well in DMEM with 10% fetal bovine serum and cultured overnight. The cells were transfected with plasmids using LIPOFECTAMINE 2000^TM reagent, according to the manufacture’s protocol. After 24 h, the cells were washed twice with PBS, lysed in SDS–PAGE sample buffer and, subjected to immunoblot analysis using the indicated antibodies. The signals were visualized using HRP-conjugated secondary antibody and ECL prime detecting reagent (Cytiva, Marlborough, MA, USA) by X-lay film or imaging analyzer LAS 4010 (Cytiva, Marlborough, MA, USA). Signal intensities of phospho-GFP-MYPT1 and GFP-MYPT1 were analyzed using Fiji software and quantified from standard curves. The phospho-GFP-MYPT1 levels were normalized by GFP-MYPT1 levels.
Figure 3 Inhibition of MYPT1 phosphorylation by the Rho-kinase-binding fragment of MYPT1. […] The cell lysates were analyzed by immunoblot analysis using anti-MYPT1-pT855 (top panel), anti-GFP (middle), or anti-GST (bottom) antibodies. The phospho-GFP-MYPT1 levels were quantified and normalized by GFP-MYPT1 levels. […] The percentages of cells with stress fibers throughout the cell (SF(++)), cells with stress fibers partly in the cell (SF(+)), and cells without stress fibers (SF(–)) were analyzed. […]

NIH3T3 cells = test: Actin stress fiber formation in NIH3T3 cells; assay type: cell-based; conditions: GST-MYPT1 fragment expressed in NIH3T3 cells, 24 h, phalloidin staining, N = 4
Description: NIH3T3 cells were seeded on polylysine-coated 13-mm coverslips at a density of 4 × 10^4 cells/well in a 6-well dish and cultured in DMEM with 10% calf serum overnight. The cells were transfected with plasmid using LIPOFECTAMINE LTX reagent (Thermo Fisher Scientific, Waltham, MA, USA), according to the manufacture’s protocol. After 24 h, the cells were incubated in fresh DMEM containing 10% calf serum for 20 min, fixed with 3.7% formaldehyde in PBS for 10 min and then treated with PBS containing 0.2% Triton X-100 for 10 min. The fixed cells were blocked with 1% bovine serum albumin for 30 min and stained with the indicated antibodies. Cover slips were mounted with Fluoromount (Diagnostic Biosystems, Pleasanton, CA, USA) and the fluorescence was examined using a confocal laser scanning microscope LSM 780 and LSM5 PASCAL built around an Axio Observer Z1 or Axiovert 200M under the control of LSM software (Carl Zeiss, Oberkochen, Germany). Images were processed using ImageJ or Photoshop (Adobe, San Jose, CA, USA).
Figure 3 Inhibition of MYPT1 phosphorylation by the Rho-kinase-binding fragment of MYPT1. (A,B) Effect of the overexpression of Rho-kinase-binding MYPT1 fragments on GFP-MYPT1 phosphorylation in COS7 cells. Full-length GFP-MYPT1 and the GST-MYPT1 Rho-kinase binding fragment were transiently expressed in COS7 cells. The cell lysates were analyzed by immunoblot analysis using anti-MYPT1-pT855 (top panel), anti-GFP (middle), or anti-GST (bottom) antibodies. The phospho-GFP-MYPT1 levels were quantified and normalized by GFP-MYPT1 levels. Data represent means ± SD. **, p < 0.01, ***, p < 0.001 as compared with the control. (C) Effect of the overexpression of Rho-kinase-binding MYPT1 fragments on stress fiber formation in NIH3T3 cells. GST-MYPT1 fragments were expressed in NIH3T3 cells. The cells were fixed in formaldehyde, and immunostained with phalloidin and anti-GST antibody. […] The percentages of cells with stress fibers throughout the cell (SF(++)), cells with stress fibers partly in the cell (SF(+)), and cells without stress fibers (SF(–)) were analyzed. […]

[4] = target: GFP-Rho-kinase-cat-L (6–553 aa, long form of catalytic fragment) (bovine)

T1 sequence (Q28021 6-553): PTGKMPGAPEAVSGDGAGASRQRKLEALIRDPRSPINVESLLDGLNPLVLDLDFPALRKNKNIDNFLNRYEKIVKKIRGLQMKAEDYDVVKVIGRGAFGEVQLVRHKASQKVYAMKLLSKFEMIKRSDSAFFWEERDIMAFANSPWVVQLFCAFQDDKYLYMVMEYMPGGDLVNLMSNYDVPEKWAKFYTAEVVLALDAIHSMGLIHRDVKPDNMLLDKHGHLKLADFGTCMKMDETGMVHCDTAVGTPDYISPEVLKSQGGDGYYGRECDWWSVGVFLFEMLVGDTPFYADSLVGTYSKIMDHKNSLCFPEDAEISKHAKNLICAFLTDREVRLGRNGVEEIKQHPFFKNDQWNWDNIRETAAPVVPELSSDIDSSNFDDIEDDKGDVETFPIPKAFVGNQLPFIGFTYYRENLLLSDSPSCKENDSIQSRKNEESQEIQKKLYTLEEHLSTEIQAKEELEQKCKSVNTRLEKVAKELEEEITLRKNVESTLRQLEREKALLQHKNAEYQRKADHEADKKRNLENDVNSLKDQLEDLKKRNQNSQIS

## KSQPKSIRERRRPR [DM2, synthetic peptide, MYPT1 836–849 aa, docking motif 2]
[1]
  Inhibition of Rho-kinase-cat-L activity (in words): moderately inhibited

## CC(C)C[C@H](NC(=O)[C@@H](NC(=O)[C@@H](NC(=O)CNC(=O)[C@H](CCC(N)=O)NC(=O)[C@H](C)NC(=O)[C@H](C)NC(=O)[C@H](CCCNC(=N)N)NC(=O)[C@H](CCCNC(=N)N)NC(=O)[C@H](CO)NC(=O)[C@H](CCC(N)=O)NC(=O)[C@H](CCCNC(=N)N)NC(=O)[C@H](C)NC(=O)[C@H](CCC(N)=O)NC(=O)[C@H](CCCNC(=N)N)NC(=O)[C@H](CO)NC(=O)[C@H](CCCNC(=N)N)NC(=O)[C@H](C)NC(=O)[C@H](CCCCN)NC(=O)[C@@H](N)CCCNC(=N)N)C(C)C)[C@@H](C)O)C(=O)N[C@H](C(=O)O)[C@@H](C)O [PS1 + DM3] (H-RKARSRQARQSRRAAQGVTLT-OH; N-terminus and C-terminus assumed)
[1]
  IC50: < 1000 nM
  Inhibition of Rho-kinase-cat-L activity (in words): inhibited Rho-kinase activity to a similar extent as PS2 + DM2

## QSRRAAQGVTLTDLQEAEKTIGRS [PS1 + DM1, synthetic peptide, MYPT1 692–715 aa, pseudosubstrate 1 plus docking motif 1]
[1]; 100 μM peptide, data not shown
  Inhibition of Rho-kinase activity at higher concentration (in words): mild inhibitory effect
[1]
  Inhibition of Rho-kinase-cat-L activity (in words): did not show an inhibitory effect

## CC[C@H](C)[C@H](NC(=O)[C@H](CO)NC(=O)[C@H](CCCCN)NC(=O)[C@@H]1CCCN1C(=O)[C@H](CCC(N)=O)NC(=O)[C@H](CO)NC(=O)[C@@H](N)CCCCN)C(=O)N[C@@H](CCCNC(=N)N)C(=O)N[C@@H](CCC(=O)O)C(=O)N[C@@H](CCCNC(=N)N)C(=O)N[C@@H](CCCNC(=N)N)C(=O)N[C@@H](CCCNC(=N)N)C(=O)N1CCC[C@H]1C(=O)N[C@@H](CCCNC(=N)N)C(=O)N[C@@H](CCC(=O)O)C(=O)N[C@@H](CCCCN)C(=O)N[C@@H](CCCNC(=N)N)C(=O)N[C@@H](CCCNC(=N)N)C(=O)N[C@@H](C)C(=O)N[C@@H](C)C(=O)NCC(=O)N[C@H](C(=O)N[C@@H](CO)C(=O)N[C@@H](Cc1ccccc1)C(=O)N[C@@H](Cc1c[nH]c2ccccc12)C(=O)O)C(C)C [PS2 + DM2] (H-KSQPKSIRERRRPREKRRAAGVSFW-OH; N-terminus and C-terminus assumed)
[2]; substrate GST-MLC (1 µM)
  Inhibition of phosphorylation of MLC by Rho-kinase: inhibited
[2]; substrate GST-MYPT1-684-868 aa (0.5 µM)
  Inhibition of phosphorylation of MYPT1 by Rho-kinase: inhibited
[2]; substrate GST-Scrib-C (1235-1630 aa) (1 µM)
  Inhibition of phosphorylation of Scrib by Rho-kinase: inhibited
[1]
  IC50: < 1000 nM
  Inhibition of Rho-kinase-cat-L activity (in words): strongly inhibited

B1: MYPT1-684–868 aa: GST-fused rat MYPT1 fragment 684–868 aa containing DMs and four phosphorylation sites (protein)
chain: KARSRQARQSRRSTQGVTLTDLQEAEKTIGRSRSTRTREQENEEKDKEEKEKQDKEKQEEKKESEVSREDEYKQKYSRTYDETYARYRPVSTSSSSTPSSSSLSTLGSSLYASSQLNRPNSLVGITSAYSRGLTKDNEREGEKKEEEKEGEDKSQPKSIRERRRPREKRRSTGVSFWTQDSDENE
modifications: left off: GST, end not stated, kept
notes: GST-fused rat MYPT1 fragment 684–868 aa containing DMs and four phosphorylation sites
[3]
  Effect on phosphorylation of GFP-MYPT1 at Thr855: strongly inhibited
NIH3T3 cells
  Effect on actin stress fiber formation: reduced actin stress fibers
[1]
  Inhibition of Rho-kinase-cat-L activity (in words): inhibited the Rho-kinase-cat-L activity in a dose-dependent manner

## RKARSRQARQSRRAAQGVTLT (not fully specified) [PS1 + DM3 synthetic peptide (MYPT1 683–703 aa)]
[4]
  IC50 of inhibition of the in vitro kinase activity of GST-Rho-kinase-cat-L on the S6 rsk substrate peptide (Figure 4E): < 1000 nM

## KSQPKSIRERRRPREKRRAAGVSFW (not fully specified) [PS2 + DM2 synthetic peptide (MYPT1 836–860 aa)]
[4]
  IC50 of inhibition of the in vitro kinase activity of GST-Rho-kinase-cat-L on the S6 rsk substrate peptide (Figure 4D): < 1000 nM

B2: MYPT1-655-715 aa: GST-fused MYPT1 fragment 655–715 aa (protein, UniProt Q10728 655-715, looked up, fragment)
chain: GTLSSTSEVRERRRSYLTPVRDEESESQRKARSRQARQSRRSTQGVTLTDLQEAEKTIGRS
modifications: also: GST fusion
notes: GST-fused MYPT1 fragment 655–715 aa
[3]
  Effect on phosphorylation of GFP-MYPT1 at Thr855: decreased the phosphorylation of MYPT1
NIH3T3 cells
  Effect on actin stress fiber formation: rather enhanced stress fiber formation
